# Laboratory results: patent US20250353833A1, “DPP9 BINDING COMPOUNDS” (UNIVERSITEIT ANTWERPEN, priority 2022, published 2025)
# Where two headings read alike, the source gives them in different places.
# How the values were obtained:
# Assay type in all cases: biochemical
# FAP = FAP (Homo sapiens (Human), UniProt Q12884); test: FAP enzyme inhibition, IC50 measurement (Z-Gly-Pro-AMC release); details: for IC50: mean ± SD (n = 3)
# DPP9 = DPP9 (Homo sapiens (Human), UniProt Q86TI2); test: DPP9 enzyme inhibition, IC50 measurement (Ala-Pro-pNA release); details: for SI DPP9/4: selectivity index DPP9/4; for SI DPP9/8 / SI DPP9/DPP8: selectivity index; for SI DPP9/8: DPP8 IC50 over DPP9 IC50
# Chain of DPP9 (Q86TI2 whole entry): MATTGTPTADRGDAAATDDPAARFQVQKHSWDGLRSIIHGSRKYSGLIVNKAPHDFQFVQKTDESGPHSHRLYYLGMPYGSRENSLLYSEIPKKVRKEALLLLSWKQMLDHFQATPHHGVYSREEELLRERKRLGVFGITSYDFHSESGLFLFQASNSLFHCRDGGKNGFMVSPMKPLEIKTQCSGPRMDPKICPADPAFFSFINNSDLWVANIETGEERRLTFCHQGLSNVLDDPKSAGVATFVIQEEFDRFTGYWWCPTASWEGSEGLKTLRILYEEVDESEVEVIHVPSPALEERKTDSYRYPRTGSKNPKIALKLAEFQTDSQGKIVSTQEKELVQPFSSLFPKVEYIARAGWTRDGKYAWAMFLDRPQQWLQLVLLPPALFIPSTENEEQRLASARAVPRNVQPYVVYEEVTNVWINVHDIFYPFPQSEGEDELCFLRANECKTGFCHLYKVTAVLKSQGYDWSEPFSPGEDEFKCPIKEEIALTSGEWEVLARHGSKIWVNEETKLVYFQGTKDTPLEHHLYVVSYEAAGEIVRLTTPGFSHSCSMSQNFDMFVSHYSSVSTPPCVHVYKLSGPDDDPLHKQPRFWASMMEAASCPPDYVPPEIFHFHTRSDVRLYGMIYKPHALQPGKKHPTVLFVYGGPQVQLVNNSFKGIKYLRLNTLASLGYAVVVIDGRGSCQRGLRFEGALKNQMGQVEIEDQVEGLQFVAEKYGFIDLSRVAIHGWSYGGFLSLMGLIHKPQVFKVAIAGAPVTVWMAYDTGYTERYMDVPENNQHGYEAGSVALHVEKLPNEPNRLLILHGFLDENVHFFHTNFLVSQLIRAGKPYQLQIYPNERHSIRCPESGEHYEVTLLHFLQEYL
# Description: (§1) DPP4 was purified from human seminal plasma as described previously.^[3]
# (§2) IC50 measurements. […] The Magellan software was used to process the data, which was then fitted using a non-linear fit model in GraFit 7. […] As a blank, the assay buffer was used instead of the enzyme. Screening measurements were carried out in duplo and IC50 values were determined in triplo with at least eight different inhibitor concentrations as described by Van Goethem et al.
# DPP2 = DPP2 (Homo sapiens (Human), UniProt Q9UHL4); test: DPP2 enzyme inhibition, IC50 measurement (Lys-Ala-pNA release); details: mean ± SD (n = 3)
# Description: as §2
# PREP = PREP (Homo sapiens (Human), UniProt P48147); test: PREP enzyme inhibition, IC50 measurement (N-succinyl-Gly-Pro-AMC release); details: mean ± SD (n = 3)
# Chain of PREP (P48147 whole entry): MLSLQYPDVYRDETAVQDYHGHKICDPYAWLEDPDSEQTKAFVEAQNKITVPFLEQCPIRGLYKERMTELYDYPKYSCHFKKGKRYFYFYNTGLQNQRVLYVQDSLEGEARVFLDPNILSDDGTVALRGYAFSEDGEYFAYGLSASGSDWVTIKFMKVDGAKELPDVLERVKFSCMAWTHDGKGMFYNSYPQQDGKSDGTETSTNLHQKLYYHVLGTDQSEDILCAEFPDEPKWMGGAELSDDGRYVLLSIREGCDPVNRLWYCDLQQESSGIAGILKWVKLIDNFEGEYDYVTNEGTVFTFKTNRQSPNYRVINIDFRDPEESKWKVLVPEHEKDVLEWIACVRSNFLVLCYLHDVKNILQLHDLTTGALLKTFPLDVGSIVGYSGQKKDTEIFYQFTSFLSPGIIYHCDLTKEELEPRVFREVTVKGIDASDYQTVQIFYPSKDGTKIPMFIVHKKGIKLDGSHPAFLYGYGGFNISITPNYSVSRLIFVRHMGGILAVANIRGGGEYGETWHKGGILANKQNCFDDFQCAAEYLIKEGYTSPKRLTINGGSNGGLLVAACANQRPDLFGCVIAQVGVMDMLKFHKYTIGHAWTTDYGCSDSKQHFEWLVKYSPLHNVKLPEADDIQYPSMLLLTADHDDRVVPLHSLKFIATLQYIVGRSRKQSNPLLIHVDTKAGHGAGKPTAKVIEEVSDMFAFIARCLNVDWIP
# Description: as §2
# DPP4 = DPP4 (Homo sapiens (Human), UniProt P27487); test: DPP4 enzyme inhibition, IC50 measurement (Ala-Pro-pNA release); details: mean ± SD (n = 3)
# Chain of DPP4 (P27487 whole entry): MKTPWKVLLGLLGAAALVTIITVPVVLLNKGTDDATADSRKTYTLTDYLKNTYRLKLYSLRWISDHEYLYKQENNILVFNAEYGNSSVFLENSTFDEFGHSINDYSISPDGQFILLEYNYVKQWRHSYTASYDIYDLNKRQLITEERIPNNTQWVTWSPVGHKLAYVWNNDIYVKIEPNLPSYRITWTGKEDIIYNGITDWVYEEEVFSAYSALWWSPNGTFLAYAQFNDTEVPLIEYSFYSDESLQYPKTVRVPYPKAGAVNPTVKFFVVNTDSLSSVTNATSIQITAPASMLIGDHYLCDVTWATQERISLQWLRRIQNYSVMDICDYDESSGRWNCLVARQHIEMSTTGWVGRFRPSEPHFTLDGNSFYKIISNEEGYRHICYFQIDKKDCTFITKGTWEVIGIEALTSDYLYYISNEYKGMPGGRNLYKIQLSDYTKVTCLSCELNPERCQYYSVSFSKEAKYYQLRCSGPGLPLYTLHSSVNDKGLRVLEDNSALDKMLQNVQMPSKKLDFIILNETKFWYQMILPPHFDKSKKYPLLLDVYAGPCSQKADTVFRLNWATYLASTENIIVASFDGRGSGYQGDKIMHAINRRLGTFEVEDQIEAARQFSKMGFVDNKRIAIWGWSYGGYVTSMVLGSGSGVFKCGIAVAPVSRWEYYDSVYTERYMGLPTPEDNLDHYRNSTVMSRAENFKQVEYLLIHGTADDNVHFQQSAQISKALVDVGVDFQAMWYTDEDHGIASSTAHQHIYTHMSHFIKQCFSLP
# Description: as §1, §2
# DPP8 = DPP8 (Homo sapiens (Human), UniProt Q6V1X1); test: DPP8 enzyme inhibition, IC50 measurement (Ala-Pro-pNA release)
# Chain of DPP8 (Q6V1X1 whole entry): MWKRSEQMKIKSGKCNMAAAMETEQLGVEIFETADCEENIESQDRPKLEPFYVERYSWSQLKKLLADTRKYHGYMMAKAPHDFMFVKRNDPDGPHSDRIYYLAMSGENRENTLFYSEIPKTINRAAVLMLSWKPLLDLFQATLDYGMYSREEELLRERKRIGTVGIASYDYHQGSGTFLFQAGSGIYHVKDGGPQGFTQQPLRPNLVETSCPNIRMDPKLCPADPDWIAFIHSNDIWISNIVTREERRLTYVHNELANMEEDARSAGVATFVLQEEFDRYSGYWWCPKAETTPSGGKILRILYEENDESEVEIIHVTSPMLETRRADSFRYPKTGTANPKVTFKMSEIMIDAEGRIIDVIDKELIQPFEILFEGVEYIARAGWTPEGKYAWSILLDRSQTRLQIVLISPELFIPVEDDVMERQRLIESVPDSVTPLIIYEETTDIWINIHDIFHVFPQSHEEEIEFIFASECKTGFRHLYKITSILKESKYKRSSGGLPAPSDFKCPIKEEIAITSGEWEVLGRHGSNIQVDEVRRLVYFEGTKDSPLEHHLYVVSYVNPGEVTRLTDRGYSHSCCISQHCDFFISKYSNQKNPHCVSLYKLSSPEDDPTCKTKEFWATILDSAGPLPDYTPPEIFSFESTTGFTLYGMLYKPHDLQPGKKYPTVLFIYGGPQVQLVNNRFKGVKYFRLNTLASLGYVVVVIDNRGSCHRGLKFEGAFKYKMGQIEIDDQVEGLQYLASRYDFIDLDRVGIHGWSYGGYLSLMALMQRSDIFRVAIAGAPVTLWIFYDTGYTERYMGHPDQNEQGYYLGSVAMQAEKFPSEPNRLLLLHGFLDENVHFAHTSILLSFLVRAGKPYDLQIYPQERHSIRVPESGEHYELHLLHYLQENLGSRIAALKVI
# Description: as §2
# [1] = Table 1, mean ± SD (n = 3), read-out: IC50 DPP9
# [2] = Table 1, mean ± SD (n = 3), read-out: IC50 DPP8
# [3] = Table 3, mean ± SD (n = 3), read-out: DPP9 IC50 ± SD
# [4] = Table 3, mean ± SD (n = 3), read-out: DPP8 IC50 ± SD
# [5] = Table 4, standard method, read-out: IC50 DPP9
# [6] = Table 4, standard method, read-out: IC50 DPP8
# Chain of FAP (Q12884 27-760): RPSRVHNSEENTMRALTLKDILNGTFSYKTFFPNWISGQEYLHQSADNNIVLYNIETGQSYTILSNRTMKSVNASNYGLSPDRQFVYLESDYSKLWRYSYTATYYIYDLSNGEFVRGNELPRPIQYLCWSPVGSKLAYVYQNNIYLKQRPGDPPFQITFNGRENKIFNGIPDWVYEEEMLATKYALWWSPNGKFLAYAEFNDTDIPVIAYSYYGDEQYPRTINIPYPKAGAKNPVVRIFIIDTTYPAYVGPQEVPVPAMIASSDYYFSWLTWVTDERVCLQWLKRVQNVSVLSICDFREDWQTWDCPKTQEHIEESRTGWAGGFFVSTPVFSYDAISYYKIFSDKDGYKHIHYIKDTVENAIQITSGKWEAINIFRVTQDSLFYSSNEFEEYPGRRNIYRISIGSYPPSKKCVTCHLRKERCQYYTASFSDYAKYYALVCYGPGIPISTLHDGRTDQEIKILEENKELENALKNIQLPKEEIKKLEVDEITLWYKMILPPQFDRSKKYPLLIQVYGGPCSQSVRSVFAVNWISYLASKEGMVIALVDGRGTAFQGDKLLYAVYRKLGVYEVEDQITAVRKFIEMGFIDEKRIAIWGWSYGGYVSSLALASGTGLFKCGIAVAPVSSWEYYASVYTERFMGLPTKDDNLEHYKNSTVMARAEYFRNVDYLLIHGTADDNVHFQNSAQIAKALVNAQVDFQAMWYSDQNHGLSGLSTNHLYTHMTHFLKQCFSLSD
molecule,measurement,setting,value
"N#C[C@@H]1[C@@H]2C[C@@H]2CN1C(=O)CNC12CC3CC(C1)CC(OCc1ccccc1)(C3)C2 [Compound 5m, (1R,2S,5S)-3-((-3-(benzyloxy)adamantan-1-yl)glycyl)-3-azabicyclo[3.1.0]hexane-2-carbonitrile]",IC50,FAP; Table 1,> 10000 nM
same,IC50,DPP9; [1],670 ± 200 nM
same,SI DPP9/4,DPP9; Table 1,0.15
same,SI DPP9/8,DPP9; Table 1,8.7
same,IC50,DPP2; Table 1,> 5000 nM
same,IC50,PREP; Table 1,> 10000 nM
same,IC50,DPP4; Table 1,100 ± 40 nM
same,IC50,DPP8; [2],5900 ± 400 nM
"N#C[C@@H]1C[C@H](N=[N+]=[N-])CN1C(=O)CNC12CC3CC(C1)CC(OCc1ccccc1)(C3)C2 [Compound 5e, (2S,4S)-4-azido-1-((3-(benzyloxy)adamantan-1-yl)glycyl)pyrrolidine-2-carbonitrile]",IC50,FAP; Table 1,> 10000 nM
same,IC50,DPP9; [1],10 ± 1 nM
same,SI DPP9/4,DPP9; Table 1,1.7
same,SI DPP9/8,DPP9; Table 1,6.0
same,IC50,DPP2; Table 1,> 5000 nM
same,IC50,PREP; Table 1,> 10000 nM
same,IC50,DPP4; Table 1,17 ± 3 nM
same,IC50,DPP8; [2],60 ± 4 nM
"CCCCCCCCOC12CC3CC(CC(NCC(=O)N4Cc5ccccc5C4)(C3)C1)C2 [Compound 5u, 1-(isoindolin-2-yl)-2-((-3-(octyloxy)adamantan-1-yl)amino)ethan-1-one]",IC50,FAP; Table 2,> 10000 nM
same,IC50,"DPP9; Table 2, mean ± SD (n = 3), read-out: IC50 DPP9",500 ± 200 nM
same,SI DPP9/4,DPP9; Table 2,>21
same,SI DPP9/8,DPP9; Table 2,6.8
same,IC50,DPP2; Table 2,> 5000 nM
same,IC50,PREP; Table 2,> 10000 nM
same,IC50,DPP4; Table 2,> 10000 nM
same,IC50,"DPP8; Table 2, mean ± SD (n = 3), read-out: IC50 DPP8",3300 ± 500 nM
"N#C[C@@H]1[C@@H]2C[C@@H]2CN1C(=O)CNC12CC3CC(C1)CC(OCc1ccc(F)cc1F)(C3)C2 [Compound 5n, (1R,2S,5S)-3-((3-((2,4-difluorobenzyl)oxy)adamantan-1-yl)glycyl)-3-azabicyclo[3.1.0]hexane-2-carbonitrile]",IC50,FAP; Table 1,> 10000 nM
same,IC50,DPP9; [1],620 ± 10 nM
same,SI DPP9/4,DPP9; Table 1,0.3
same,SI DPP9/8,DPP9; Table 1,3.4
same,IC50,DPP2; Table 1,> 5000 nM
same,IC50,PREP; Table 1,> 10000 nM
same,IC50,DPP4; Table 1,200 ± 10 nM
same,IC50,DPP8; [2],2000 ± 2000 nM
"N#C[C@@H]1CCCN1C(=O)CNC12CC3CC(C1)CC(OCc1ccccc1)(C3)C2 [Compound 5a, (S)-1-((-3-(benzyloxy)adamantan-1-yl)glycyl)pyrrolidine-2-carbonitrile]",IC50,FAP; Table 1,4000 ± 4000 nM
same,inhibition of FAP,FAP; at the tested concentrations,micromolar inhibitor
same,SI DPP9/8,DPP9; Table 1,9.9
same,IC50,DPP2; Table 1,> 5000 nM
same,IC50,PREP; Table 1,4300 ± 300 nM
same,IC50,DPP8; [2],1320 ± 200 nM
"CCCCOC12CC3CC(CC(NCC(=O)N4C[C@H]5C[C@H]5[C@H]4C#N)(C3)C1)C2 [Compound 5o, (1R,2S,5S)-3-((-3-butoxyadamantan-1-yl)glycyl)-3-azabicyclo[3.1.0]hexane-2-carbonitrile]",IC50,FAP; Table 1,> 10000 nM
same,IC50,DPP9; [1],990 ± 400 nM
same,IC50,DPP2; Table 1,> 5000 nM
same,IC50,PREP; Table 1,> 10000 nM
same,IC50,DPP8; [2],> 10000 nM
"CCCCOC12CC3CC(CC(NCC(=O)N4C[C@@H](N=[N+]=[N-])C[C@H]4C#N)(C3)C1)C2 [Compound 5g, (2S,4S)-4-azido-1-((3-butoxyadamantan-1-yl)glycyl)pyrrolidine-2-carbonitrile]",IC50,FAP; Table 1,> 10000 nM
same,IC50,DPP9; [1],35 ± 2 nM
same,SI DPP9/4,DPP9; Table 1,3.8
same,SI DPP9/8,DPP9; Table 1,7.8
same,IC50,DPP2; Table 1,> 5000 nM
same,IC50,PREP; Table 1,> 10000 nM
same,IC50,DPP8; [2],270 ± 60 nM
"O=C1CCC(N2C(=O)c3cccc(NCCOCCNC(=O)NC45CC6CC(CC(NCC(=O)N7Cc8ccc(F)cc8C7)(C6)C4)C5)c3C2=O)C(=O)N1 (centres unmarked) [Compound 77, 1-(2-(2-((2-(2,6-Dioxopiperidin-3-yl)-1,3-dioxoisoindolin-4-yl)amino)ethoxy)ethyl)-3-(3-((2-(5-fluoroisoindolin-2-yl)-2-oxoethyl)amino)adamantan-1-yl)urea]",IC50,DPP9; [3],2.4 nM
same,SI DPP9/8,DPP9; Table 3,9
same,IC50,DPP8; [4],21 nM
"O=C(NCc1ccc(F)cc1F)OC12CC3CC(CC(NCC(=O)N4Cc5ccccc5C4)(C3)C1)C2 [Compound 39, 3-((2-(isoindolin-2-yl)-2-oxoethyl)amino)adamantan-1-yl (2,4-difluorobenzyl)carbamate]",IC50,DPP9; [3],48.3 nM
same,SI DPP9/8,DPP9; Table 3,17.0
same,IC50,DPP8; [4],823 ± 185 nM
"Cc1ncsc1-c1ccc(CNC(=O)[C@@H]2C[C@@H](O)CN2C(=O)[C@@H](NC(=O)CCOCCOCCOCCC(=O)NC23CC4CC(CC(NCC(=O)N5Cc6ccc(F)cc6C5)(C4)C2)C3)C(C)(C)C)cc1 [Compound 124, (2S,4R)-1-((2S)-2-(tert-butyl)-16-((3-((2-(5-fluoroisoindolin-2-yl)-2-oxoethyl)amino)adamantan-1-yl)amino)-4,16-dioxo-7,10,13-trioxa-3-azahexadecanoyl)-4-hydroxy-N-(4-(4-methylthiazol-5-yl)benzyl)pyrrolidine-2-carboxamide]",SI DPP9/DPP8,DPP9; Table 4,5
same,IC50,DPP9; [5],20 nM
same,IC50,DPP8; [6],94 ± 25 nM
"CC(C)(C)NC(=O)NC12CC3CC(CC(NCC(=O)N4Cc5cc(F)c(F)cc5C4)(C3)C1)C2.Cl [Compound 85, 1-(tert-butyl)-3-((1s,3r,5R,7S)-3-((2-(5,6-difluoroisoindolin-2-yl)-2-oxoethyl)amino)adamantan-1-yl)urea hydrochloride]",SI DPP9/DPP8,DPP9; Table 4,41
same,IC50,DPP9; [5],32 nM
same,IC50,DPP8; [6],1330 ± 97 nM
"COC(=O)[C@H](CCSC)NC(=O)OC12CC3CC(CC(NCC(=O)N4Cc5ccc(F)cc5C4)(C3)C1)C2 [Compound 61, Methyl (((-3-((2-(5-fluoroisoindolin-2-yl)-2-oxoethyl)amino)adamantan-1-yl)oxy)carbonyl)-L-methioninate]",IC50,DPP9; [3],46.1 nM
same,SI DPP9/8,DPP9; Table 3,15.3
same,IC50,DPP8; [4],705 ± 76 nM
"Cl.O=C(NC12CC3CC(CC(NCC(=O)N4Cc5ccc(F)cc5C4)(C3)C1)C2)c1ccc(F)cc1 [Compound 95, 4-fluoro-N-((1s,3r,5R,7S)-3-((2-(5-fluoroisoindolin-2-yl)-2-oxoethyl)amino)adamantan-1-yl)benzamide hydrochloride]",SI DPP9/DPP8,DPP9; Table 4,7
same,IC50,DPP9; [5],42 nM
same,IC50,DPP8; [6],295 ± 15 nM
"CC12CC3CC(C)(C1)CC(NCC(=O)N1Cc4ccc(F)cc4C1)(C3)C2 [Compound 63, 2-((3,5-Dimethyladamantan-1-yl)amino)-1-(5-fluoroisoindolin-2-yl)ethan-1-one]",IC50,DPP9; [3],443 ± 168 nM
same,SI DPP9/8,DPP9; Table 3,10.8
same,IC50,DPP8; [4],4780 ± 670 nM
N-(-3-((2-(5-fluoroisoindolin-2-yl)-2-oxoethyl)amino)adamantan-1-yl)adamantane-1-carboxamide [Compound 45],IC50,DPP9; [3],38 ± 10 nM
same,SI DPP9/8,DPP9; Table 3,31
same,IC50,DPP8; [4],1180 ± 138 nM
"O=C(NCCCc1ccccc1)OC12CC3CC(CC(NCC(=O)N4Cc5ccccc5C4)(C3)C1)C2 [Compound 38, 3-((2-(isoindolin-2-yl)-2-oxoethyl)amino)adamantan-1-yl (3-phenylpropyl)carbamate]",IC50,DPP9; [3],100 nM
same,SI DPP9/8,DPP9; Table 3,10.1
same,IC50,DPP8; [4],1010 ± 132 nM
"Cl.O=C(NC12CC3CC(CC(NCC(=O)N4Cc5ccc(F)cc5C4)(C3)C1)C2)c1ccc(-c2ccccn2)cc1 [Compound 90, N-((1s,3r,5R,7S)-3-((2-(5-fluoroisoindolin-2-yl)-2-oxoethyl)amino)adamantan-1-yl)-4-(pyridin-2-yl)benzamide hydrochloride]",SI DPP9/DPP8,DPP9; Table 4,37
same,IC50,DPP9; [5],3 nM
same,IC50,DPP8; [6],127 ± 23 nM
O=C(O)CNC(=O)OC12CC3CC(CC(NCC(=O)N4Cc5ccc(F)cc5C4)(C3)C1)C2 [Compound 53],IC50,DPP9; [3],39.6 nM
same,SI DPP9/8,DPP9; Table 3,43.9
same,IC50,DPP8; [4],1740 ± 59.1 nM
"CC(C)(C)OC(=O)NC12CC3CC(CC(NCC(=O)N4Cc5ccccc5C4)(C3)C1)C2 [Compound 28, tert-butyl(3-((2-(isoindolin-2-yl)-2oxoethyl)amino)adamantan-1-yl)carbamate]",IC50,DPP9; [3],36.7 nM
same,SI DPP9/8,DPP9; Table 3,31.7
same,IC50,DPP8; [4],1140 ± 150 nM
"Cc1ccc2c(c1)CN(C(=O)CNC13CC4CC(C1)CC(NC(=O)OC(C)(C)C)(C4)C3)C2 [Compound 84, tert-butyl ((1s,3r,5R,7S)-3-((2-(5-methylisoindolin-2-yl)-2-oxoethyl)amino)adamantan-1-yl)carbamate]",SI DPP9/DPP8,DPP9; Table 4,23
same,IC50,DPP9; [5],208 ± 48 nM
same,IC50,DPP8; [6],4710 ± 444 nM
"O=C(NCCCCO)OC12CC3CC(CC(NCC(=O)N4Cc5ccccc5C4)(C3)C1)C2 [Compound 29, 3-((2-(isoindolin-2-yl)-2-oxoethyl)amino)adamantan-1-yl(4-hydroxybutyl)carbamate]",IC50,DPP9; [3],243 ± 107 nM
same,SI DPP9/8,DPP9; Table 3,10.7
same,IC50,DPP8; [4],2600 ± 577 nM
"CC(C)(C)OC(=O)NC12CC3CC(CC(NCC(=O)N4Cc5ccc(F)cc5C4)(C3)C1)C2 [Compound 46, tert-butyl (3-((2-(5-fluoroisoindolin-2-yl)-2-oxoethyl)amino)adamantan-1-yl)carbamate]",IC50,DPP9; [3],14.3 nM
same,SI DPP9/8,DPP9; Table 3,57.6
same,IC50,DPP8; [4],824 ± 148 nM
"CC(C)(C)NC(=O)NC12CC3CC(CC(NCC(=O)N4Cc5ccc(F)cc5C4)(C3)C1)C2 [Compound 48, 1-(tert-butyl)-3-(3-((2-(5-fluoroisoindolin-2-yl)-2-oxoethyl)amino)adamantan-1-yl)urea]",IC50,DPP9; [3],4 ± 1 nM
same,SI DPP9/8,DPP9; Table 3,85
same,IC50,DPP8; [4],369 ± 30 nM
